From article PMC11071649, “Synthesis and Selective Anticancer Activity Evaluation of 2-phenylacrylonitrile Derivatives as Tubulin Inhibitors” (Current Medicinal Chemistry, 2024)

How the values were obtained:
Type in all cases: cell-based, human
[1] = system: A549 lung cancer cell; experiment: MTT anti-proliferative assay, A549; details: MTT, 48 h
Summary of the method: (§1)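 Anti-proliferative effect is measured with the MTT assay, which reports inhibition of net cell growth. Cells come from ATCC, are maintained in DMEM with FBS and are seeded into 96-well plates before treatment.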

[2] = system: AGS gastric cancer cell; experiment: MTT anti-proliferative assay, AGS; details: for IC50: MTT, 48 h
Summary of the method: as §1

[3] = system: BEL-7402 liver cancer cell; experiment: MTT anti-proliferative assay, BEL-7402; details: for IC50: MTT, 48 h
Summary of the method: as §1

[4] = system: HCT116 colectal cancer cell; experiment: MTT anti-proliferative assay, HCT116; details: for IC50: MTT, 48 h, read-out: IC50 HCT-116
Summary of the method: as §1

[5] = system: HeLa cervical cancer cell; experiment: MTT anti-proliferative assay, HeLa; details: MTT, 48 h
Summary of the method: as §1

[6] = system: HepG2 hepatoma cell; experiment: MTT anti-proliferative assay, HepG2; details: for IC50: MTT, 48 h, read-out: IC50 HepG-2
Summary of the method: as §1

[7] = system: L-02 normal liver cell; experiment: MTT assay, L-02 normal cells; details: 48 h
Summary of the method: as §1

[8] = system: MGC-803 late stage differentiation gastric cancer cell; experiment: MTT anti-proliferative assay, MGC-803; details: for IC50: MTT, 48 h
Summary of the method: as §1

[9] = system: MCF-7 breast cancer cell; experiment: MTT anti-proliferative assay, MCF-7; details: MTT, 48 h
Summary of the method: as §1

[10] = system: MCF-10A normal breast cell; experiment: MTT assay, MCF-10A normal cells; details: 48 h
Summary of the method: as §1

[11] = system: Raji B lymphoblastoid cell; experiment: MTT anti-proliferative assay, Raji; details: for IC50: MTT, 48 h, read-out: IC50 Raji
Summary of the method: as §1

[12] = system: SGC-7901 early differentiation gastric cancer cell; experiment: MTT anti-proliferative assay, SGC-7901; details: for IC50: MTT, 48 h
Summary of the method: as §1

[13] = system: diffuse large B-cell lymphoma SU-DHL-10 cell; experiment: MTT anti-proliferative assay, SU-DHL-10; details: for IC50: MTT, 48 h, read-out: IC50 SU-DHL-10
Summary of the method: as §1

SMILES | IC50 [1] [µM] | IC50 [2] [µM] | IC50 [3] [µM] | IC50 [4] [µM] | IC50 [5] [µM] | IC50 [6] [µM] | IC50 [7] [µM] | IC50 [8] [µM] | IC50 [9] [µM] | IC50 [10] [µM] | IC50 [11] [µM] | IC50 [12] [µM] | IC50 [13] [µM] | SI (selectivity index), IC50 (L-02)/IC50 (AGS) [2] | SI (selectivity index), IC50 (L-02)/IC50 (MGC-803) [8] | SI (selectivity index), IC50 (L-02)/IC50 (Raji) [11] | SI (selectivity index), IC50 (L-02)/IC50 (SU-DHL-10) [13] | also measured
COc1ccc(/C=C(\C#N)c2ccc(C(F)(F)F)cc2)cc1 [Compound 1f2s] | > 100 | > 100 | > 100 | 47.8 ± 0.7 | > 100 | > 100 | > 100 | > 100 | > 100 | > 100 | > 100 | > 100 | > 100 |  |  |  |  | SI (selectivity index), IC50 (L-02)/IC50 (HCT-116) [4]: > 2.0
N#C/C(=C\c1ccc(Br)cc1)c1cccc(OC(F)(F)F)c1 [Compound 1b2d] | > 100 | 13.9 ± 4.2 | 14.6 ± 4.6 | 15.1 ± 2.9 | 66.8 ± 9.8 | 34.9 ± 3.2 | 50.4 ± 0.8 | 10.1 ± 0.9 | > 100 | 34.1 ± 3.6 | 16.3 ± 6.1 | 21.9 ± 3.3 | 35.6 ± 0.9 | > 3.5 | > 4.9 | > 3.0 | > 1.4 | SI (selectivity index), IC50 (L-02)/IC50 (BEL-7402) [3]: > 3.4; SI (selectivity index), IC50 (L-02)/IC50 (HepG-2) [6]: > 1.4; SI (selectivity index), IC50 (L-02)/IC50 (SGC-7901) [12]: > 2.3
Cc1ccc(/C=C(\C#N)c2ccc(OC(F)(F)F)cc2)cc1 [Compound 1a2e] | > 100 | 30.8 ± 7.9 | > 100 | > 100 | > 100 | > 100 | > 100 | > 100 | > 100 | > 100 | > 100 | > 100 | > 100 | > 3.2 |  |  |  | 
N#C/C(=C\c1ccc(Cl)cc1)c1ccccc1OC(F)(F)F [Compound 1c2b] | > 100 | 31.4 ± 8.3 | > 100 | > 100 | > 100 | 70.5 ± 25.4 | > 100 | 29 ± 8.3 | > 100 | > 100 | > 100 | > 100 | > 100 | > 3.1 | > 3.4 |  |  | SI (selectivity index), IC50 (L-02)/IC50 (HepG-2) [6]: > 1.4
CN(C)c1ccc(/C=C(\C#N)c2ccc(C(F)(F)F)cc2)cc1 [Compound 1f2a] | > 100 | > 100 | > 100 | > 100 | > 100 | > 100 | > 100 | > 100 | > 100 | > 100 | > 100 | > 100 | > 100 |  |  |  |  | 
N#C/C(=C\c1ccccc1)c1cccc(OC(F)(F)F)c1 [Compound 1b2a] | > 100 | > 100 | > 100 | > 100 | > 100 | > 100 | > 100 | > 100 | > 100 | > 100 | > 100 | > 100 | > 100 |  |  |  |  | 
Cc1ccc(/C(C#N)=C/c2ccc(N(C)C)cc2)cc1 [Compound 1d2a] | > 100 | 23 ± 1 | > 100 | > 100 | > 100 | > 100 | > 100 | 18.8 ± 1.7 | > 100 | > 100 | 7.9 ± 0.5 | > 100 | 19.9 ± 0.7 | > 4.3 | > 5.3 | > 12.5 | > 5.0 | 
N#C/C(=C\c1cccc(C(F)(F)F)c1)c1ccc(C(F)(F)F)cc1 [Compound 1f2l] | > 100 | > 100 | > 100 | > 100 | > 100 | > 100 | > 100 | > 100 | > 100 | > 100 | 72.1 ± 7.2 | > 100 | 50.1 ± 20.9 |  |  | > 1.3 | > 1.9 | 
